Measured values reported in patent publication US11498903B2 (BRISTOL-MYERS SQUIBB COMPANY, priority 2017, dated 2022).
Like-named read-outs stand apart in the source and are kept apart here.

Target: T1, human APJ receptor (Homo sapiens, UniProt P35414)
T1 construct: expressed in transfected cells
T1 sequence (P35414 1-380): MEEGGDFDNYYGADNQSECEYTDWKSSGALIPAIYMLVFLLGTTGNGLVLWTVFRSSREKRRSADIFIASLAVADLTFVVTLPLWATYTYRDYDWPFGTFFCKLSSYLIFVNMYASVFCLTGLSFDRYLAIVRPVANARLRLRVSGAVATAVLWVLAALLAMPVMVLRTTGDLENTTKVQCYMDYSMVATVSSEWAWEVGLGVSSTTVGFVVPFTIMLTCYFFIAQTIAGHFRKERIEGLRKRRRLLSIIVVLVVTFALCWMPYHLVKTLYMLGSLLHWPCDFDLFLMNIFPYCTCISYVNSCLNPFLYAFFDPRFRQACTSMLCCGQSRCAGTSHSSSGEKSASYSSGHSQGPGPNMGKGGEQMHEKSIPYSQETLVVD
Test: Intracellular cAMP accumulation assay (APJ hcAMP, HTRF)
Type: cell-based
Outline: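 Inhibition of 2 μM forskolin-driven cAMP ([…] present) measured by HTRF in 5,000 HEK293 cells/well stably expressing human APJ, 30 min, room temperature. EC50 came from a variable-slope sigmoidal fit; Ymax was relative to (Pyr1)apelin-13 set at 100%.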

[1] = Table 1, HEK293 cells stably expressing human APJ receptor, inhibition of forskolin-mediated cAMP production, read-out: APJ hcAMP EC50
[2] = human APJ, cAMP, potency range class, read-out: APJ cAMP Human EC50

EC50 [1] [µM]	EC50 [2] [µM]	Molecule	EC50 (Table 3, HEK293 cells stably expressing human APJ receptor, read-out: APJ cAMP Human EC50) [µM]
0.101 to 0.5	0.101 to 0.5	O=C(NC(CC1CCOCC1)c1ccccc1)c1ccc(-c2cc(Cl)ccc2-c2nc3ccccc3[nH]2)c(C(=O)O)c1 (stereo not drawn) [Example 216, 2′-(1H-1,3-benzodiazol-2-yl)-5′-chloro-4-{[2-(oxan-4-yl)-1-phenylethyl]carbamoyl}-[1,1′-biphenyl]-2-carboxylic acid]	
0.101 to 0.5		O=C(NC(CC1CCOCC1)c1ccccc1)c1ccc(-c2cc(Cl)ccc2-c2nc3ccccc3[nH]2)c(C(=O)O)c1 (stereo not drawn) [Example 217, 2′-(1H-1,3-benzodiazol-2-yl)-5′-chloro-4-{[2-(oxan-4-yl)-1-phenylethyl]carbamoyl}-[1,1′-biphenyl]-2-carboxylic acid]	
< 0.01	< 0.01	CCCC(NC(=O)c1ccc(-c2cc(Cl)ccc2-c2nc3cc(OC)ccc3[nH]2)c(C(=O)O)c1)c1ccccc1OC (stereo not drawn) [Example 218, 5′-chloro-2′-(5-methoxy-1H-1,3-benzodiazol-2-yl)-4-{[1-(2-methoxyphenyl)butyl]carbamoyl}-[1,1′-biphenyl]-2-carboxylic acid]	
< 0.01	< 0.01	O=C(N[C@H](c1ccc(F)cc1)C1CC1)c1ccc(-c2c(Cl)cccc2-c2nc3ccccc3[nH]2)c(C(=O)O)c1 [Example 219, (S)-2′-(1H-1,3-benzodiazol-2-yl)-6′-chloro-4-{[cyclopropyl(4-fluorophenyl)methyl]carbamoyl}-[1,1′-biphenyl]-2-carboxylic acid]	
< 0.01	< 0.01	CCCC(NC(=O)c1ccc(-c2c(Cl)cccc2-c2nc3ccccc3[nH]2)c(C(=O)O)c1)c1ccccc1OC [Example 225, (S)-2′-(1H-1,3-benzodiazol-2-yl)-6′-chloro-4-{[1-(2-methoxyphenyl)butyl]carbamoyl}-[1,1′-biphenyl]-2-carboxylic acid]	
< 0.01	< 0.01	O=C(N[C@@H](CCC(F)(F)F)c1ccccc1)c1ccc(-c2c(Cl)cccc2-c2nc3ccccc3[nH]2)c(C(=O)O)c1 [Example 226, (S)-2′-(1H-1,3-benzodiazol-2-yl)-6′-chloro-4-[(4,4,4-trifluoro-1-phenylbutyl)carbamoyl]-[1,1′-biphenyl]-2-carboxylic acid]	
0.101 to 0.5	0.101 to 0.5	COC[C@@H](NC(=O)c1ccc(-c2c(Cl)cccc2-c2nc3ccccc3[nH]2)c(C(=O)O)c1)C1CC1 [Example 230, (S)-2′-(1H-1,3-benzodiazol-2-yl)-6′-chloro-4-[(1-cyclopropyl-2-methoxyethyl)carbamoyl]-[1,1′-biphenyl]-2-carboxylic acid]	
< 0.01	< 0.01	COc1cc2nc(-c3cccc(Cl)c3-c3ccc(C(=O)N[C@H](c4ccc(F)cc4)C4CC4)cc3C(=O)O)[nH]c2cc1F [Example 232, (S)-2′-chloro-4-{[cyclopropyl(4-fluorophenyl)methyl]carbamoyl}-6′-(6-fluoro-5-methoxy-1H-1,3-benzodiazol-2-yl)-[1,1′-biphenyl]-2-carboxylic acid]	
< 0.01	< 0.01	CCCC(NC(=O)c1ccc(-c2cc(Cl)ccc2-c2nc3cc(C(C)(C)C)ccc3[nH]2)c(C(=O)O)c1)c1ccccc1OC (stereo not drawn) [Example 241, 2′-(5-tert-butyl-1H-1,3-benzodiazol-2-yl)-5′-chloro-4-{[1-(2-methoxyphenyl)butyl]carbamoyl}-[1,1′-biphenyl]-2-carboxylic acid]	

Molecule	EC50 [1] [µM]	EC50 [2] [µM]	EC50 (Table 3, HEK293 cells stably expressing human APJ receptor, read-out: APJ cAMP Human EC50) [µM]
(S)-2′-chloro-4-{[(1R)-1-cyclohexylbutyl]carbamoyl}-6′-(6-fluoro-5-methoxy-1H-1,3-benzodiazol-2-yl)-[1,1′-biphenyl]-2-carboxylic acid [Example 160]	< 0.01	< 0.01	
(S)-2′-chloro-6′-(5- chloro-6-methyl-1H- 1,3-benzodiazol-2- yl)-4-{[(1R)-1- phenylbutyl] carbamoyl}- [1,1′-biphenyl]-2- carboxylic acid [Example 91]	< 0.01		< 0.01
